Values quoted from earlier work, collected in patent US6846495B2, “Compositions having improved delivery of actives” (The Procter & Gamble Company, priority 1999, dated 2005).

Conditions: intranasal formulations

For `COc1ccc2c(c1)[C@@]13CCCC[C@H]1[C@@H](C2)N(C)CC3` [Dextromethorphan, 3-methoxy-17-methylmorphinan], the bioavailability is listed as “substantial increases in bioavailability”.
